Assay results taken from ChEMBL document CHEMBL1629424, “Does conjugation of antioxidants improve their antioxidative/anti-inflammatory potential?” (Bioorg Med Chem, 2010).
pIC50: −log10 of the molar value. Calls of active or inactive are those of the source. The rule behind the calls is not given here.

How the values were obtained:
[1] = Antioxidant activity of the compound assessed as reducing activity of DPPH at 0.1 mM after 60 mins; type: functional; parameters: scale not given: the % may be the effect or the level left
[2] = Antioxidant activity against AAPH-induced lipid peroxidation assessed as inhibition of conjugated diene hydroperoxide production at 0.1 mM by UV spectrophotometry; type: functional
[3] = Inhibition of soybean lipoxygenase; parameters: species or system Glycine max
[4] = test system: Rattus norvegicus; test: Antiinflammatory activity in Fisher rat assessed as inhibition of carrageenan-induced paw oedema at 0.01 mmol/kg, po measured after 3.5 hrs; type: functional
[5] = Antioxidant activity of the compound assessed as reducing activity of DPPH at 0.1 mM after 20 mins; type: functional; parameters: scale not given: the % may be the effect or the level left
[6] = test system: Glycine max; test: Inhibition of soybean lipoxygenase at 0.1 mM
[7] = Cytotoxicity against RAMEC assessed as cell viability after 24 hrs by MTT assay; settings: Rattus norvegicus
[8] = test system: Glycine max; test: Inhibition of soybean lipoxygenase at 0.05 mM

Row | pIC50 [3] | inhibition [6] | inhibition [8] | SMILES | Activity [1] | inhibition [2] | inhibition in vivo at 10 µmol/kg [4] [%] | Activity [5] | pIC50 [7]
1 | 4.06 |  |  | COc1cc(C)c(/C=C/C(C)=C/C=C/C(C)=C/C(=O)NCCc2ccc(O)c(O)c2)c(C)c1C | 79% | 10% | 13.7 | 79% | 
2 |  | 75% | inactive | COc1cc(C)c(/C=C/C(C)=C/C=C/C(C)=C/C(=O)NCCCNCCCCNCCCNC(=O)/C=C(C)/C=C/C=C(C)/C=C/c2c(C)cc(OC)c(C)c2C)c(C)c1C | 38% | 97% | 19 | 26% | 5.33
3 |  | 1% | inactive | COc1cc(C)c(/C=C/C(C)=C/C=C/C(C)=C/C(=O)O)c(C)c1C [ACITRETIN] | inactive | 85% | 63 | inactive | 4.84
4 |  | 9% | inactive | Cc1oc2c(C)c3oc(=O)cc(C)c3cc2c1/C=C/C(=O)O | 11% | 73% |  | 11% | 
5 |  | 57% | inactive | Cc1oc2c(C)c3oc(=O)cc(C)c3cc2c1/C=C/C(=O)NCCCNCCCCNCCCNC(=O)/C=C/c1c(C)oc2c(C)c3oc(=O)cc(C)c3cc12 | 54% | 33% |  | 41% | 
6 | 3.22 |  |  | O=C(O)/C=C/c1ccc(O)c(O)c1 [CAFFEIC ACID] | 6% | 17.5% |  | 5.5% | 
7 |  | 16% | inactive | O=C(O)CCc1ccc(O)c(O)c1 | 100% | 47% |  | 100% | 
8 |  | 76% | inactive | CC1=C(/C=C/C(C)=C/C=C/C(C)=C/C(=O)NCCCNCCCCNCCCNC(=O)/C=C(C)/C=C/C=C(C)/C=C/C2=C(C)CCCC2(C)C)C(C)(C)CCC1 | 5% | 58% | 40 | inactive | 5.59
9 | 4.28 |  |  | O=C(O)/C=C/C(=O)n1cc(C(=O)Nc2ccccc2)c2ccccc21 | inactive | 85% | 11 | 1% | 
10 | 5.03 |  |  | Cc1oc2c(C)c3oc(=O)cc(C)c3cc2c1/C=C/C(=O)OC(C)(C)C | 11% | 80% | 46 | 11% | 5.54
11 |  | 23% | inactive | COc1ccc(/C=C/C(=O)O)cc1OC | 10% | 56% |  | 9% | 
12 | 4.47 |  |  | COc1ccc(/C=C/C(=O)NCCOCCOC(=O)/C=C/C(=O)n2cc(C(=O)Nc3ccccc3)c3ccccc32)cc1OC | 12% | inactive |  | inactive | 
13 | 4.38 |  |  | COc1cc(C)c(/C=C/C(C)=C/C=C/C(C)=C/C(=O)NCCCNCCCCNCCCNC(=O)/C=C/c2c(C)oc3c(C)c4oc(=O)cc(C)c4cc23)c(C)c1C | inactive | 31% |  | inactive | 

The remaining lines, values behind:

Row | SMILES | pIC50 [3] | inhibition [6] | inhibition [8] | Activity [1] | inhibition [2] | inhibition in vivo at 10 µmol/kg [4] [%] | Activity [5] | pIC50 [7]
14 | Cc1c(C)c2c(c(C)c1O)CCC(C)(C(=O)O)O2 (centres undefined) |  |  |  |  | 63% |  |  | 
15 | CC1=C(/C=C/C(C)=C/C=C/C(C)=C/C(=O)NCCCNCCCCNCCCNC(=O)/C=C/c2c(C)oc3c(C)c4oc(=O)cc(C)c4cc23)C(C)(C)CCC1 |  | 43% | inactive | 38% | 45% |  | 11% | 
16 | N[C@@H](Cc1ccc(O)c(O)c1)C(=O)NCCc1ccc(O)c(O)c1 | 4.09 |  |  | 92% | inactive |  | 92% | 
17 | CC1=C(/C=C/C(C)=C/C=C/C(C)=C/C(=O)NCCCCCCCCCCCCNC(=O)/C=C(C)/C=C/C=C(C)/C=C/C2=C(C)CCCC2(C)C)C(C)(C)CCC1 |  | 23% | inactive | 13.4% | 41% |  | inactive | 5.55
18 | COc1ccc(/C=C/C(=O)NCCCNCCCCNCCCNC(=O)/C=C/c2ccc(OC)c(OC)c2)cc1OC | 4.21 |  |  | 58% | 100% | 42 | 52% | 4.95
19 | COc1ccc(/C=C/C(=O)NCCOCCOC(=O)/C=C/c2c(C)oc3c(C)c4oc(=O)cc(C)c4cc23)cc1OC | 4.19 |  |  | 15% | 98% | 9 | inactive | 4.89
20 | N[C@@H](Cc1ccc(O)c(O)c1)C(=O)O |  | 23% | inactive | 76% | 65% |  | 76% | 
21 | COc1cc(C)c(/C=C/C(C)=C/C=C/C(C)=C/C(=O)NCc2ccccc2)c(C)c1C | 4.39 |  |  | 2% | 45% | 3.6 | inactive | 
22 | NCCCNCCCCNCCCN |  | inactive | inactive | 4% | inactive |  | 4% | 
23 | O=C1O[C@H]([C@@H](O)CO)C(O)=C1O |  |  |  | 100% |  |  | 99% | 
24 | N[C@@H](Cc1ccc(O)c(O)c1)C(=O)NCCCNCCCCNCCCNC(=O)[C@@H](N)Cc1ccc(O)c(O)c1 |  | 32% | inactive | 96% | 71% |  | 89% | 
25 | CC(Cc1ccc(O)c(O)c1)C(C)Cc1ccc(O)c(O)c1 (centres undefined) |  |  |  | 83% |  |  |  | 
26 | CCCCNC(=O)/C=C/c1c(C)oc2c(C)c3oc(=O)cc(C)c3cc12 |  | 24% | inactive | 8.4% | 66% |  | inactive | 
27 | NCCc1ccc(O)c(O)c1 [DOPAMINE] | 4.00 |  |  | 86% | 43% | 13 | 86% | 
28 | O=C(CCc1ccc(O)c(O)c1)NCCCNCCCCNCCCNC(=O)CCc1ccc(O)c(O)c1 [KUKOAMINE A] | 5.02 |  |  | 100% | 72% | 43 | 96% | 5.46
29 | COc1ccc2c(c1)c(CC(=O)O)c(C)n2C(=O)c1ccc(Cl)cc1 [INDOMETHACIN] |  |  |  |  |  | 47 |  | 
30 | CC1=C(/C=C/C(C)=C/C=C/C(C)=C/C(=O)O)C(C)(C)CCC1 [TRETINOIN] |  | inactive | inactive | 23% | 75% | 11 | 11% | 4.74
